The EC50 is the midpoint of the concentration-response curve. As a reminder, the IC50 is the concentration that inhibits the measured activity by half.

Where a name gives a salt, the structure may show the parent alone.

The target in the first test is T1, recombinant human TGR5 (Homo sapiens, UniProt Q8TDU6).
T1 construct: expressed in transfected cells
T1 sequence (Q8TDU6 1-330): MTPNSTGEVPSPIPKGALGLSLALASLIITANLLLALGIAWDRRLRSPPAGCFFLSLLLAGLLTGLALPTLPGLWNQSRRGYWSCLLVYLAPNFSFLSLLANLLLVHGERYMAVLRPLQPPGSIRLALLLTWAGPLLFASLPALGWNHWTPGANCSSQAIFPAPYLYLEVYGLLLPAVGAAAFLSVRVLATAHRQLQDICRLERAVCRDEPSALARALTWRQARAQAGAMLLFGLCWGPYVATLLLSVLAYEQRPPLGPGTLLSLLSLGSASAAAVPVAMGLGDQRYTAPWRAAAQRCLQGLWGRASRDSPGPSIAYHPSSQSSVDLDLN
The test is described as follows: cAMP assay (cAMP accumulation, HTRF) in CHOK1 cells stably expressing TGR5. It counts as cell-based. The settings on record: CHOK1 cells stably expressing human TGR5, 30 minutes at RT, 1% DMSO. The method, boiled down:
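CHOK1 cells stably expressing TGR5 (text also calls it chimeric human/mouse), 0.4-0.5×10^6 cells/mL in PBS with Ca/Mg and 0.1 mM IBMX, compound 30 min at RT, 1% DMSO. cAMP by HTRF 665/620 interpolated to a standard curve; EC50 from 4-parameter fit as half-maximal increase.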
As for `Cc1c(Cl)cccc1OCCCC(=O)N1C[C@@H]2C[C@@H]2c2c(-c3cnn(Cc4cccc(C(=O)O)c4)c3)cccc21` (single isomer, unassigned) [Example 231], the EC50 came out at 47 nM.

On to `Cc1cccc(OCCCC(=O)N2CCCc3c(-c4cnn(CC(=O)O)c4)cccc32)c1C` [Example 1, 2-(4-(1-(4-(2,3-Dimethylphenoxy)butanoyl)-1,2,3,4-tetrahydroquinolin-5-yl)-1H-pyrazol-1-yl)acetic acid], for which the 50% effective concentration (EC50) stood at 3540 nM.

For the molecule `Cc1c(Cl)cccc1OCCCC(=O)N1C[C@@H]2C[C@@H]2c2c(-c3cnn(Cc4cccc(C(=O)NCCS(=O)(=O)O)c4)c3)cccc21` [Example 138A, 2-(3-((4-((1aR,7bS)-3-(4-(3-Chloro-2-methylphenoxy)butanoyl)-1a,2,3,7b-tetrahydro-1H-cyclopropa[c]quinolin-7-yl)-1H-pyrazol-1-yl)methyl)benzamido) ethanesulfonic acid], the EC50 came to 24 nM.

On to `Cc1c(Cl)cccc1OCCCC(=O)N1C[C@@H]2C[C@@H]2c2c(-c3cnn(Cc4cccc(N)c4)c3)cccc21` [Example 924A, 1-((1aR,7bS)-7-(1-(3-Aminobenzyl)-1H-pyrazol-4-yl)-1a,2-dihydro-1H-cyclopropa[c]quinolin-3(7bH)-yl)-4-(3-chloro-2-methylphenoxy)butan-1-one, TFA salt], for which the EC50 came out at 38 nM.

`CCOC(=O)CNC(=O)c1cccc(Cn2cc(-c3cccc4c3[C@H]3C[C@H]3CN4C(=O)CCCOc3cccc(Cl)c3C)cn2)c1` [Example 924B, Ethyl 2-(3-((4-((1aR,7bS)-3-(4-(3-chloro-2-methylphenoxy)butanoyl)-1a,2,3,7b-tetrahydro-1H-cyclopropa[c]quinolin-7-yl)-1H-pyrazol-1-yl)methyl)benzamido)acetate]: the 50% effective concentration (EC50) was found to be 27 nM.

Consider `Cc1cccc(N(CCCC(=O)N2CCCc3c(-c4cnn(Cc5cccc(C(=O)O)c5)c4)cccc32)C(=O)OC(C)(C)C)c1C` [Example 933, 3-((4-(1-(4-(tert-Butoxycarbonyl(2,3-dimethylphenyl)amino)butanoyl)-1,2,3,4-tetrahydroquinolin-5-yl)-1H-pyrazol-1-yl)methyl)benzoic acid], for which the EC50 is 1610 nM.

Take `Cc1cccc(NCCCC(=O)N2CCCc3c(-c4cnn(Cc5cccc(C(=O)O)c5)c4)cccc32)c1C` [Example 934, 3-((4-(1-(4-(2,3-Dimethylphenylamino)butanoyl)-1,2,3,4-tetrahydroquinolin-5-yl)-1H-pyrazol-1-yl)methyl)benzoic acid, TFA salt]: the EC50 was 191 nM.

On to “(R)-5-tert-Butyl 1-methyl 2-(4- chloro-3-((4-((1aR,7bS)-3-((2- (3-chloro-2-methylphenoxy) ethoxy)carbonyl)-1a,2,3,7b- tetrahydro-1H-cyclopropa[c] quinolin-7-yl)-1H-pyrazol-1- yl)methyl)benzamido) pentanedioate [Example 669]”, for which the EC50 stood at 1340 nM.

The target in the next test is T2, recombinant human DGAT1 (Homo sapiens, UniProt O75907).
T2 construct: made in house; host or cells: Sf9 insect cells (baculovirus), membrane preparation
T2 sequence (O75907 1-488): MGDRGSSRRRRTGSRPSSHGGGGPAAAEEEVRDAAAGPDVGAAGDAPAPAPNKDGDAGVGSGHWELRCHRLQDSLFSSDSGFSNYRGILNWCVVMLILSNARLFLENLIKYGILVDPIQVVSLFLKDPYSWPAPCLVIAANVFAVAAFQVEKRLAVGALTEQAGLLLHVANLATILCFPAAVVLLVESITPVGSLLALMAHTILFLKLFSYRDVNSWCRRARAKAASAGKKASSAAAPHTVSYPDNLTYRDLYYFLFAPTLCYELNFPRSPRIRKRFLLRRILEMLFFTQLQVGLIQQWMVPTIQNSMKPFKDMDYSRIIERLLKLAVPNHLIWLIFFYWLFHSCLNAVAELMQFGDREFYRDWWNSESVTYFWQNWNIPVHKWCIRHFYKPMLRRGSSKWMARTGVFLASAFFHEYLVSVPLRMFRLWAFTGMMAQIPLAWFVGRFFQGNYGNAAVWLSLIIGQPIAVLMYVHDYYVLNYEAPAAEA
The test is described as follows: Diacylglycerol Acyltransferase (DGAT) Assay. The settings on record: membranes from Sf9 cells expressing recombinant human DGAT1; 2-monooleoylglycerol and [3H]-oleoyl-CoA as substrates; read-out: IC50 against the DGAT1 enzyme. It counts as biochemical. How it is done:
Diacylglycerol Acyltransferase (DGAT) Assay
DGAT1 enzyme was assayed using membranes isolated from Sf9 cells expressing the recombinant human DGAT1 cDNA with 2-monooleoylglycerol and [^3H]-oleoyl-CoA as substrates as described by Seethala et al. (Anal Biochem., 383(2):144-150 (Dec. 15, 2008)). Briefly, the assays were conducted in 384-well plates in a total volume of 30 μl at 25° C. In each assay, 200 ng of recombinant human DGAT1 membrane was incubated with 10 μM of 2-monooleoylglycerol and 15 μM of [^3H]-oleoyl-CoA in 100 mM potassium phosphate (pH 7.4) for 20 min with various concentrations of compounds delivered in DMSO. The assay was terminated by the addition of 20 μl of Stopping Solution (7.5 mg/ml Yittrium Oxide Polylysine beads, 3.3 mg/ml Fraction V BSA and 200 μM Mercuric chloride in 50 mM HEPES, pH 7.4). The signal was measured 1 h after quenching the reaction using LEADSEEKER^SM for 5 minutes. To calculate the degree of inhibition, the zero level of enzyme activity (blank) was defined by the above assay procedure using membrane form Sf9 cell uninfected with baculovirus (Naive) and the 100% level of DGAT1 enzyme activity was defined by human […] DGAT1 assay with the vehicle DMSO. The IC50s of inhibitors were determined by logistic 4 parameter equation in XL-fit.
With `Cc1c(Cl)cccc1OCCCC(=O)N1C[C@@H]2C[C@@H]2c2c(-c3cnn(Cc4cccc(C(=O)O)c4)c3)cccc21` (single isomer, unassigned) [Example 231], the concentration for half-maximal inhibition (IC50) was above 10000 nM.

For `Cc1cccc(OCCCC(=O)N2C[C@@H]3C[C@@H]3c3c(-c4cccc(COC(=O)NCCC(=O)O)c4)cccc32)c1C` (single isomer, unassigned) [Example 237], the IC50 is above 10000 nM.

With `Cc1cccc(OCCCC(=O)N2CCCc3c(-c4cnn(CC(=O)O)c4)cccc32)c1C` [Example 1, 2-(4-(1-(4-(2,3-Dimethylphenoxy)butanoyl)-1,2,3,4-tetrahydroquinolin-5-yl)-1H-pyrazol-1-yl)acetic acid], the IC50 is above 10000 nM.

`Cc1cccc(OCCCC(=O)N2CC3CC3c3c(-c4cnn(Cc5c(F)cc(C(=O)NCCC[C@H](N)C(=O)O)cc5Cl)c4)cccc32)c1C` (stereo partly drawn) [Example 69A, (2S)-2-Amino-5-(3-chloro-4-((4-(3-(4-(2,3-dimethylphenoxy)butanoyl)-1a,2,3,7b-tetrahydro-1H-cyclopropa[c]quinolin-7-yl)-1H-pyrazol-1-yl)methyl)-5-fluorobenzamido)pentanoic acid]: the IC50 was above 10000 nM.

Turning to `Cc1cccc(OCCCC(=O)N2CCCc3c(-c4cnn(Cc5cccc(OCCP(=O)(O)O)c5)c4)cccc32)c1C` [Example 69M, 2-(3-((4-(1-(4-(2,3-Dimethylphenoxy)butanoyl)-1,2,3,4-tetrahydroquinolin-5-yl)-1H-pyrazol-1-yl)methyl)phenoxy)ethylphosphonic acid], the IC50 was above 10000 nM.

As for `Cc1cccc(OCCCC(=O)N2CCCc3c(-c4cnn(Cc5cccc(NC(=O)NCS(=O)(=O)O)c5)c4)cccc32)c1C` [Example 86, (3-(3-((4-(1-(4-(2,3-Dimethylphenoxy)butanoyl)-1,2,3,4-tetrahydroquinolin-5-yl)-1H-pyrazol-1-yl)methyl)phenyl)ureido)methanesulfonic acid], the IC50 was above 10000 nM.

For the molecule `Cc1c(Cl)cccc1OCCCC(=O)N1C[C@@H]2C[C@@H]2c2c(-c3cnn(Cc4cccc(C(=O)NCCS(=O)(=O)O)c4)c3)cccc21` [Example 138A, 2-(3-((4-((1aR,7bS)-3-(4-(3-Chloro-2-methylphenoxy)butanoyl)-1a,2,3,7b-tetrahydro-1H-cyclopropa[c]quinolin-7-yl)-1H-pyrazol-1-yl)methyl)benzamido) ethanesulfonic acid], the IC50 was above 10000 nM.

For the molecule `Cc1cccc(OCCCC(=O)N2CCCc3c(-c4ccnc(Nc5ccc(C(=O)O)cc5)c4)cccc32)c1C` [Example 168A, 4-(4-(1-(4-(2,3-Dimethylphenoxy)butanoyl)-1,2,3,4-tetrahydroquinolin-5-yl)pyridin-2-ylamino) benzoic acid], the IC50 was above 10000 nM.

With `Cc1cccc(OCCCC(=O)N2CCOc3c(-c4cnn(Cc5cccc(NC(=O)NCCS(=O)(=O)O)c5)c4)cccc32)c1C` [Example 177N, 2-(3-(3-((4-(4-(4-(2,3-Dimethylphenoxy)butanoyl)-3,4-dihydro-2H-benzo[b][1,4]oxazin-8-yl)-1H-pyrazol-1-yl)methyl)phenyl)ureido) ethanesulfonic acid], the IC50 was above 10000 nM.

Take `Cc1cccc(OCCCC(=O)N2CCOc3c(-c4cnn(Cc5c(F)cc(C(=O)NCC[N+](C)(C)C)cc5Cl)c4)cccc32)c1C` [Example 177P, 2-(3-Chloro-4-((4-(4-(4-(2,3-dimethylphenoxy)butanoyl)-3,4-dihydro-2H-benzo[b][1,4]oxazin-8-yl)-1H-pyrazol-1-yl)methyl)-5-fluorobenzamido)-N,N,N-trimethylethanaminium, TFA]: the IC50 is above 10000 nM.

In the case of `Cc1cccc(OCCCC(=O)N2CCCc3c(-c4cnn(Cc5cccc(OCCS(=O)(=O)O)c5)c4)cccc32)c1C` [Example 215, 2-(3-((4-(1-(4-(2,3-Dimethylphenoxy)butanoyl)-1,2,3,4-tetrahydroquinolin-5-yl)-1H-pyrazol-1-yl)methyl)phenoxy)ethanesulfonic acid], the 50% inhibitory concentration (IC50) was above 10000 nM.

Values taken from patent publication US9062028B2, “Bicyclic nitrogen containing heteroaryl TGR5 receptor modulators” (Bristol-Myers Squibb Company, priority 2011, dated 2015).
